In brackets after ≈: the same amount, converted by molar mass.
Legend:
[1] = Amphotericin B solubility in triblock copolymer solution with or without PLA oligomers (dialysis preparation); type: physicochemical
Method: The mixture was added to dialysis tubing with a 3500 Dalton molecular weight cutoff and dialyzed against reverse osmosis deionized water (pH=2) overnight. The dialysate was then exchanged for reverse osmosis deionized water and dialyzed overnight. The reported solubility of amphotericin B in water is 3 μg/mL. […] The maximum concentration of amphotericin B in the mixture of PLA oligomers and the triblock copolymer was improved greater then 10 fold than that in the triblock copolymer alone.

[2] = cited from earlier work
[3] = Solution stability of paclitaxel in Me-PEG-PLGA diblock copolymer with or without PLA oligomer; type: physicochemical; details: 40 mg paclitaxel, 2 mL water
Method: The PLA oligomers prepared in Example 4 (75 mg) were added to 600 mg of Me-PEG-PLGA diblock copolymer prepared in Example 9, 40 mg of paclitaxel, and 2 mL of reverse osmosis deionized water. […] The solution was then filtered through a 0.2 μm filter. […] Precipitate began to appear within 1 day from the Me-PEG-PLGA diblock copolymer system alone, while the solution containing the PLA oligomer maintained paclitaxel in solution and remained clear for more than 2 days.

[4] = Solution stability of paclitaxel in PLGA-PEG-PLGA triblock copolymer with or without PLA oligomer; type: physicochemical; details: 40 mg paclitaxel, 2 ml water, 0.2 μm filtered
Text: The solution stability enhancing properties of PLA oligomers are illustrated in this example. […] The solution was then filtered through a 0.2 μm filter. […] A precipitate appeared within 1 day with the PLGA-PEG-PLGA triblock copolymer system alone, while the solution containing the PLA oligomer maintained paclitaxel in solution and remained clear for more than 3 days.

Row | time paclitaxel maintained in solution and remained clear ([3]; Me-PEG-PLGA diblock copolymer (600 mg) with PLA oligomer (75 mg)) | time until precipitate began to appear ([3]; Me-PEG-PLGA diblock copolymer system alone (600 mg)) [days] | time paclitaxel maintained in solution and remained clear ([4]; PLGA-PEG-PLGA triblock copolymer (600 mg) with PLA oligomer (75 mg)) | time until a precipitate appeared ([4]; PLGA-PEG-PLGA triblock copolymer system alone (600 mg)) [days] | SMILES | improvement of maximum concentration over the triblock copolymer alone ([1]; mixture of PLA oligomers and the triblock copolymer) [fold] | solubility ([1]; triblock copolymer solution of Example 1 (entry 1), without PLA oligomers) [µg/mL] | reported solubility in water [2] [µg/mL]
1 | – | – | – | – | C[C@@H]1[C@H](O)[C@@H](C)/C=C/C=C/C=C/C=C/C=C/C=C/C=C/[C@H](O[C@@H]2O[C@H](C)[C@@H](O)[C@H](N)[C@@H]2O)C[C@@H]2O[C@](O)(C[C@@H](O)C[C@@H](O)[C@H](O)CC[C@@H](O)C[C@@H](O)CC(=O)O[C@H]1C)C[C@H](O)[C@H]2C(=O)O [amphotericin B] | > 10 | 150 (≈ 162 µM) | 3
2 | more than 2 days | ≤ 1 | more than 3 days | ≤ 1 | CC(=O)O[C@H]1C(=O)[C@@]2(C)[C@H]([C@H](OC(=O)c3ccccc3)[C@]3(O)C[C@H](OC(=O)[C@H](O)[C@@H](NC(=O)c4ccccc4)c4ccccc4)C(C)=C1C3(C)C)[C@]1(OC(C)=O)CO[C@@H]1C[C@@H]2O [paclitaxel] | – | – | –

Source: patent publication US6592899B2, “PLA/PLGA oligomers combined with block copolymers for enhancing solubility of a drug in water” (Macromed Incorporated, priority 2001, dated 2003)
